Holding throughout (experiment): DTP human tumour cell line panel, 48 h
Experiment [1] deals with ACHN renal.
In experiment [2] the test system is COLO 205 colon.
The test system of experiment [3] is HCT-116 colon.
Experiment [4] concerns HS 578T breast.
Experiment [5] has as its system HT29 colon.
Experiment [6] relates to IGROV1 ovarian.
In experiment [7] the test system is MDA-MB-435.
For experiment [8], the system named is MOLT-4 leukemia.
Experiment [9] relates to NCI/ADR-RES ovarian.
Experiment [10] deals with RPMI-8226 leukemia.
In experiment [11] the test system is SF-539 CNS.
Experiment [12] concerns SW-620 colon.
The subject of experiment [13] is T-47D breast.
Experiment [14] has as its system U251 CNS.
Experiment [15] relates to UO-31 renal.
The test system of experiment [16] is NCI-H226 lung.

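Growth conditions: 96-well plates. Treatment: test compound, 48 hours, 5 concentrations. Analysis: linear interpolation between bracketing concentrations; unreached endpoints set to highest concentration. TGI denotes the concentration required for complete inhibition of growth.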 Bounds are passed on as bounds.

A word on the TGI: it is the concentration at which net growth stops. Lower therefore signals more potent growth arrest.

For `O=C(CCCN1CCC2(CC1)CC(=O)N(N1CCCCCC1)C2=O)c1ccc(F)cc1`, the TGI in experiment [1] is above 100 µM; in experiment [2], above 100 µM; in [3], above 100 µM; in [4], above 100 µM; in experiment [5] it was 33.8 µM; in experiment [6], above 100 µM. The TGI in experiment [7] is above 100 µM; in experiment [8] it was above 100 µM; in experiment [9], 37.3 µM; in experiment [10], above 100 µM; in experiment [11], above 100 µM; in [12], above 100 µM. For the same molecule, the total growth inhibition concentration (TGI) in [13], in [14] and in [15] was above 100 µM in each case.
As to `O=C1C(=Nc2ccccc2)Oc2cc(O)ccc21`, the TGI in [1], in experiment [2], in experiment [3], in experiment [5], in experiment [6] and in experiment [7] was above 100 µM each time. The TGI in experiment [8], in experiment [16], in experiment [9], in experiment [11], in experiment [12] and in experiment [13] was above 100 µM throughout. Also, the concentration for total growth inhibition (TGI) in experiment [14] and in experiment [15] was above 100 µM throughout.
As to `O=C1Nc2ccccc2/C1=C/c1c(Cl)[nH]c2ccc(O)cc12`, the TGI in experiment [1] is 31.4 µM; in [2], 6.4 µM; in experiment [3], 19.4 µM; in experiment [4] it was above 100 µM; in experiment [5] it was 12.1 µM; in experiment [6] it was 13.5 µM. Further, the TGI in experiment [7] was 0.947 µM; in [8], 40.1 µM; in experiment [16] it was 5.12 µM; in experiment [10], 14.1 µM; in experiment [11], 2.16 µM; in [12] it was 20.7 µM. Besides, the concentration for total growth inhibition (TGI) in experiment [13] was found to be 28.3 µM; in experiment [14] it was 14.5 µM; in [15] it was 28.2 µM.
`Nc1ncnc2c1cnn2Cc1cn(COCC(O)CO)nn1` (stereo not drawn): the TGI in experiment [1] is above 100 µM; in experiment [2], above 100 µM; in experiment [3], above 100 µM; in experiment [4], 32.8 µM; in experiment [5], above 100 µM; in experiment [6], above 100 µM. Besides, the total growth inhibition concentration (TGI) in [7], in experiment [9], in experiment [11], in experiment [12], in [13] and in experiment [14] was above 100 µM throughout. This molecule gave a TGI in experiment [15] above 100 µM.
Consider `O=S(=O)(O)c1ccc2c(N=Nc3ccc(F)cc3)c(O)c(S(=O)(=O)O)cc2c1`, for which the total growth inhibition concentration (TGI) in experiment [1], in [2], in experiment [3], in experiment [4], in [5] and in experiment [6] was above 100 µM in each case. Also, the concentration for total growth inhibition (TGI) in [7], in experiment [8], in experiment [9], in [10], in experiment [12] and in experiment [13] was above 100 µM throughout. For the same molecule, the TGI in experiment [14] and in [15] was above 100 µM throughout.
As for `COc1cc(/C=C2\C(=O)N(Cc3ccccc3)C(c3ccccc3)S2(=O)=O)cc(OC)c1OC` (stereo not drawn), the TGI in [1] was above 100 µM; in experiment [2], 94 µM; in experiment [3], above 100 µM; in [4] it was above 100 µM; in experiment [5], above 100 µM; in [7] it was above 100 µM. Further, the TGI in [8] was 14.7 µM; in experiment [16], above 100 µM; in experiment [9], above 100 µM; in experiment [12], above 100 µM; in [13], above 100 µM; in [14], above 100 µM. For the same molecule, the TGI in [15] was above 100 µM.
`CCOP(=O)(OCC)C1=C(c2ccccc2)OC(N)=C(C#N)C1c1ccc(Cl)cc1` (stereo not drawn): the TGI in experiment [1], in experiment [2], in [3], in experiment [5], in experiment [6] and in [7] was above 100 µM in each case. Moreover, the TGI in [8], in experiment [16], in experiment [9], in experiment [10], in [11] and in experiment [12] was above 100 µM throughout. Besides, the TGI in [13], in experiment [14] and in experiment [15] was above 100 µM each time.
On to `O=c1oc(-c2ccccc2)c(-c2ccccc2)n1-c1ccc(Br)cc1`, for which the TGI in experiment [1], in experiment [2], in [3], in experiment [4], in experiment [5] and in experiment [6] was above 100 µM each time. The concentration for total growth inhibition (TGI) in experiment [7] is above 100 µM; in experiment [8], above 100 µM; in experiment [16], above 100 µM; in experiment [11], 53.8 µM; in [12], above 100 µM; in experiment [13] it was above 100 µM. For the same molecule, the concentration for total growth inhibition (TGI) in experiment [14] and in [15] was above 100 µM in each case.
On to `Oc1ccc(/C=C/c2ccc3cccc(O)c3n2)cc1O`, for which the concentration for total growth inhibition (TGI) in [1] was 20.7 µM; in experiment [2], 29.6 µM; in experiment [3] it was 14.5 µM; in experiment [4], above 100 µM; in experiment [5], 37.7 µM; in [6] it was above 100 µM. Moreover, the TGI is above 100 µM in experiment [7]; 21.5 µM in [8]; 2.56 µM in experiment [9]; 78 µM in experiment [10]; 9.46 µM in experiment [11]; above 100 µM in [12]. The TGI in experiment [13] was 6.52 µM; in experiment [14], 20.6 µM; in [15], 7.71 µM.

These data come from PubChem BioAssay (NCI).
